Reference: US8163771B2, “11 β-HSD1 modulators” (Exelixis, Inc., priority 2008, dated 2012)

Target: T1, recombinant human 11 β-HSD1 (Homo sapiens, UniProt P28845)
T1 construct: made in house; host or cells: E. coli
Test: 11 β-HSD1 SPA Assay (Scintillation Proximity Assay)
Format: biochemical
Procedure, shortened: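 Scintillation proximity read-out of cortisol formed from 40 nM [3H]cortisone by purified recombinant human enzyme (30-100 nM, E. coli) with 1 mM NADPH, pH7.4, 2 hours at room temperature; beads with cortisol antibody and glycyrrhetinic acid stop the reaction, read next day. IC50 derived from inhibition normalised to background and maximal wells.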

T1 sequence (P28845 whole entry): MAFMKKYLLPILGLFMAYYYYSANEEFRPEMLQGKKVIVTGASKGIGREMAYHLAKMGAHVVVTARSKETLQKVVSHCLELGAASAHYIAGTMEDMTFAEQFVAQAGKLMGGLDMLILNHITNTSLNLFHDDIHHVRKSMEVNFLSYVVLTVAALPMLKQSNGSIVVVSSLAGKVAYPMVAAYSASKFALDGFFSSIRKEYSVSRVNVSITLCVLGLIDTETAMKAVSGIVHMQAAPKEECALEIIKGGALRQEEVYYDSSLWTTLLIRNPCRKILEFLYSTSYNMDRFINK

Which IC50 does the source give for `CC(C)(Oc1ncc(Cl)cc1C(F)(F)F)C(=O)N[C@H]1C[C@H]2CC[C@@H](C1)N2c1ccc(C(=O)NCC(F)(F)F)cn1` [Example 273, 6-{3-endo-[(2-{[5-chloro-3-(trifluoromethyl)pyridin-2-yl]oxy}-2-methylpropanoyl)amino]-8-azabicyclo[3.2.1]oct-8-yl}-N-(2,2,2-trifluoroethyl)pyridine-3-carboxamide] here?
The IC50 was less than 200 nM.

How did the IC50 turn out when `CC(C)(C(=O)N[C@H]1C[C@H]2CC[C@@H](C1)N2c1ccc(C(N)=O)cn1)S(=O)(=O)c1ccc(Cl)cc1Cl` [Example 274, 6-[3-endo-({2-[(2,4-dichlorophenyl)sulfonyl]-2-methylpropanoyl}amino)-8-azabicyclo[3.2.1]oct-8-yl]pyridine-3-carboxamide] was run?
Its IC50 is less than 200 nM.

With `CC(C)(Oc1ccc(F)cc1Cl)C(=O)N[C@H]1C[C@H]2CC[C@@H](C1)N2c1ccc(S(C)(=O)=O)nc1` [Example 275, 2-[(2-chloro-4-fluorophenyl)oxy]-2-methyl-N-{8-[6-(methylsulfonyl)pyridin-3-yl]-8-azabicyclo[3.2.1]oct-3-endo-yl}propanamide] as the compound, how does the IC50 read?
The IC50 was less than 200 nM.

Which IC50 does the source give for `CC(C)(Oc1ccc(F)cc1Cl)C(=O)N[C@H]1C[C@H]2CC[C@@H](C1)N2c1ccc(-c2noc(C(F)(F)F)n2)cn1` [Example 276, 2-[(2-chloro-4-fluorophenyl)oxy]-2-methyl-N-(8-{5-[5-(trifluoromethyl)-1,2,4-oxadiazol-3-yl]pyridin-2-yl}-8-azabicyclo[3.2.1]oct-3-endo-yl)propanamide] here?
The IC50 was less than 2000 nM.

For `CC(C)(Oc1ccc(Cl)cc1-c1ccc(F)cc1)C(=O)N[C@H]1C[C@H]2CC[C@@H](C1)N2c1ccc(C(N)=O)cn1` [Example 277, 6-[3-endo-({2-[(5-chloro-4′-fluorobiphenyl-2-yl)oxy]-2-methylpropanoyl}amino)-8-azabicyclo[3.2.1]oct-8-yl]pyridine-3-carboxamide], which IC50 is on record?
The IC50 was less than 200 nM.

With `CC(C)(Oc1ccc(Cl)cc1Cl)C(=O)NC1CC2CCC(C1)N2c1ncc(NC(=O)CC(F)(F)F)cc1Cl` (stereo not drawn) [Example 278, N-{5-chloro-6-[3-endo-({2-[(2,4-dichlorophenyl)oxy]-2-methylpropanoyl}amino)-8-azabicyclo[3.2.1]oct-8-yl]pyridin-3-yl}-3,3,3-trifluoropropanamide] as the compound, how does the IC50 read?
Its IC50 is less than 2000 nM.

`CC(C)(Oc1ccc(Cl)cc1Cl)C(=O)N[C@H]1C[C@H]2CC[C@@H](C1)N2C(=O)c1ccc(C(N)=O)cc1` [Example 279, 4-{[3-endo-({2-[(2,4-dichlorophenyl)oxy]-2-methylpropanoyl}amino)-8-azabicyclo[3.2.1]oct-8-yl]carbonyl}benzamide] was tested. Which IC50 did it give?
The IC50 was less than 2000 nM.

`CS(=O)(=O)c1ccc(N2[C@@H]3CC[C@H]2C[C@@H](NC(=O)C2(c4ccc(F)c(C(F)(F)F)c4)CC2)C3)nc1` [Example 280, 1-[4-fluoro-3-(trifluoromethyl)phenyl]-N-{8-[5-(methylsulfonyl)pyridin-2-yl]-8-azabicyclo[3.2.1]oct-3-endo-yl}cyclopropanecarboxamide] was tested. Which IC50 did it give?
The IC50 was less than 2000 nM.

`CS(=O)(=O)c1ccc(N2[C@@H]3CC[C@H]2C[C@@H](NC(=O)C2(c4ccc(F)c(F)c4)CC2)C3)nc1` [Example 281, 1-(3,4-difluorophenyl)-N-{8-[5-(methylsulfonyl)pyridin-2-yl]-8-azabicyclo[3.2.1]oct-3-endo-yl}cyclopropanecarboxamide] was tested. Which IC50 did it give?
The IC50 was less than 2000 nM.

With `CC(C)(Oc1ccc(-c2ccc(F)cc2)cc1Cl)C(=O)N[C@H]1C[C@H]2CC[C@@H](C1)N2c1ccc(C(N)=O)cn1` [Example 282, 6-[3-endo-({2-[(3-chloro-4′-fluorobiphenyl-4-yl)oxy]-2-methylpropanoyl}amino)-8-azabicyclo[3.2.1]oct-8-yl]pyridine-3-carboxamide] as the compound, how does the IC50 read?
The IC50 was less than 200 nM.

For `CC(C)(Oc1ccc(F)cc1C(F)(F)F)C(=O)N[C@H]1C[C@H]2CC[C@@H](C1)N2c1ccc(NS(C)(=O)=O)cc1` [Example 283, 2-{[4-fluoro-2-(trifluoromethyl)phenyl]oxy}-2-methyl-N-(8-{4-[(methylsulfonyl)amino]phenyl}-8-azabicyclo[3.2.1]oct-3-endo-yl)propanamide], which IC50 is on record?
The IC50 was less than 200 nM.

How did the IC50 turn out when `CC(C)(Oc1ccc(Cl)cc1C(F)(F)F)C(=O)N[C@H]1C[C@H]2CC[C@@H](C1)N2c1ccc(S(C)(=O)=O)cc1` [Example 284, 2-{[4-chloro-2-(trifluoromethyl)phenyl]oxy}-2-methyl-N-{8-[4-(methylsulfonyl)phenyl]-8-azabicyclo[3.2.1]oct-3-endo-yl}propanamide] was run?
The IC50 was less than 200 nM.

How did the IC50 turn out when `CC(C)(Oc1ccc(Cl)cc1C1CCCCC1)C(=O)N[C@H]1C[C@H]2CC[C@@H](C1)N2c1ccc(C(N)=O)cn1` [Example 285, 6-[3-endo-({2-[(4-chloro-2-cyclohexylphenyl)oxy]-2-methylpropanoyl}amino)-8-azabicyclo[3.2.1]oct-8-yl]pyridine-3-carboxamide] was run?
The IC50 was less than 200 nM.

For `CC(C)(Sc1ccc(Cl)cc1Cl)C(=O)N[C@H]1C[C@H]2CC[C@@H](C1)N2c1ccc(C(N)=O)cn1` [Example 286, 6-[3-endo-({2-[(2,4-dichlorophenyl)thio]-2-methylpropanoyl}amino)-8-azabicyclo[3.2.1]oct-8-yl]pyridine-3-carboxamide], which IC50 is on record?
Its IC50 is less than 200 nM.

For `CC(C)(Oc1ccc(Cl)cc1Cl)C(=O)N[C@H]1C[C@H]2CC[C@@H](C1)N2c1ccc(C(=O)O)cn1` [Example 287, 6-[3-endo-({2-[(2,4-dichlorophenyl)oxy]-2-methylpropanoyl}amino)-8-azabicyclo[3.2.1]oct-8-yl]pyridine-3-carboxylic acid], which IC50 is on record?
Its IC50 is less than 200 nM.

Which IC50 does the source give for `CC(C)(Oc1ccc(F)cc1C(F)(F)F)C(=O)N[C@H]1C[C@H]2CC[C@@H](C1)N2c1ccc(S(C)(=O)=O)nc1` [Example 288, 2-{[4-fluoro-2-(trifluoromethyl)phenyl]oxy}-2-methyl-N-{8-[6-(methylsulfonyl)pyridin-3-yl]-8-azabicyclo[3.2.1]oct-3-endo-yl}propanamide] here?
The IC50 was less than 2000 nM.

With `CS(=O)(=O)c1cccc(C2(C(=O)N[C@H]3C[C@H]4CC[C@@H](C3)N4c3ccc(C(=O)NCC(F)(F)F)cn3)CC2)c1` [Example 289, 6-{3-endo-[({1-[3-(methylsulfonyl)phenyl]cyclo-propyl}carbonyl)amino]-8-azabicyclo[3.2.1]oct-8-yl}-N-(2,2,2-trifluoroethyl)pyridine-3-carboxamide] as the compound, how does the IC50 read?
Its IC50 is less than 2000 nM.

With `CC(C)(Oc1ccc(F)c(Cl)c1Cl)C(=O)N[C@H]1C[C@H]2CC[C@@H](C1)N2c1ccc(NS(C)(=O)=O)cn1` [Example 290, 2-[(2,3-dichloro-4-fluorophenyl)oxy]-2-methyl-N-(8-{5-[(methylsulfonyl)amino]pyridin-2-yl}-8-azabicyclo[3.2.1]oct-3-endo-yl)propanamide] as the compound, how does the IC50 read?
Its IC50 is less than 200 nM.

For `CC(C)(Oc1ccc(Cl)cc1Cl)C(=O)N[C@H]1C[C@H]2CC[C@@H](C1)N2Cc1cccc(C(N)=O)c1` [Example 291, 3-{[3-endo-({2-[(2,4-dichlorophenyl)oxy]-2-methylpropanoyl}amino)-8-azabicyclo[3.2.1]oct-8-yl]methyl}benzamide], which IC50 is on record?
The IC50 was less than 2000 nM.

For `CC(C)(Oc1ccc(F)cc1C(F)(F)F)C(=O)N[C@H]1C[C@H]2CC[C@@H](C1)N2c1ccc(-c2nnn[nH]2)nc1` [Example 292, 2-{[4-fluoro-2-(trifiuoromethyl)phenyl]oxy}-2-methyl-N-{8-[6-(1H-tetrazol-5-yl)pyridin-3-yl]-8-azabicyclo[3.2.1]oct-3-endo-yl}propanamide], which IC50 is on record?
Its IC50 is less than 200 nM.
